Consider nine molecules from US7812045B2, “Antifungal triazole derivatives” (Daewoong Pharmaceutical Co., Ltd., priority 2005, dated 2010).

≈ marks a conversion by molar mass, not a printed value. Bounds are passed on as bounds.

For assay [1], the system named is Aspergillus flavus ATCC MYA-1004. The assay can be described thus: In vitro assay for antifungal activity (MIC90). In kind it is cell-based. As to conditions: RPMI 1640, growth read after 48 hours, duplicate; for MIC90: read-out: MIC90 (concentration at which 90% of the fungi were inhibited compared to the negative control). On the procedure: (§1) Fungal strains to be tested were inoculated onto Sabouraud dextrose agar, YM agar, and potato dextrose agar and cultured at 35° C. for two to three days. Individual single colonies of the yeast fungi selected out of the cultured strains were suspended in 5 ml of 0.85% sterile saline, followed by correction to adjust the absorbance thereof at 530 nm to 0.108. The suspensions were diluted serially by 1:50 and then 1:20 in RPMI 1640 media to prepare liquid inocula ranging in cell count from 1.0×10^3 to 5.0×10^3 CFU/ml. As for filamentous fungi, their spores were suspended in 0.85% sterile saline and the suspensions were corrected with sterile saline to show optical transmittance at 530 nm of 80 to 82%. A dilution of 1:50 was made with RPMI 1640 media to prepare liquid inocula having cell counts from […] to 5×10^4 CFU/ml.
(§2) Antifungal samples were prepared by diluting the compounds of the present inventions in RPMI 1640 media to serial concentrations from 0.0625 to 32 μg/ml. As a vehicle, DMSO was contained in a final concentration of 1% (V/V) in the antifungal samples. 0.1 ml of each of the dilutions in series was added to equal volume of each of the fungal inocula.

The subject of assay [2] is Aspergillus fumigatus ATCC MYA-1163. Description: In vitro assay for antifungal activity (MIC90). Type of assay: cell-based. Particulars: RPMI 1640, growth read after 48 hours, duplicate; for MIC90: read-out: MIC90 (concentration at which 90% of the fungi were inhibited compared to the negative control). As for the experimental part: as §1, §2
Assay [3] concerns Aspergillus niger ATCC 9142. The assay can be described thus: In vitro assay for antifungal activity (MIC90). Type of assay: cell-based. As to conditions: duplicate; for MIC90 (concentration at which 90% of the fungi were inhibited compared to the negative control): RPMI 1640, growth read after 48 hours; for MIC90: ATCC9142, RPMI 1640, growth read after 48 hours, read-out: MIC90 (concentration at which 90% of the fungi were inhibited compared to the negative control). As for the experimental part: as §1, §2

Assay [4] has as its system Aspergillus terreus ATCC 28301. The assay can be described thus: In vitro assay for antifungal activity (MIC90). In kind it is cell-based. Particulars: duplicate; for MIC90 (concentration at which 90% of the fungi were inhibited compared to the negative control): RPMI 1640, growth read after 48 hours; for MIC90: ATCC28301, RPMI 1640, growth read after 48 hours, read-out: MIC90 (concentration at which 90% of the fungi were inhibited compared to the negative control). On the procedure: as §1, §2

Assay [5] relates to Candida albicans ATCC 32033. Description: In vitro assay for antifungal activity (MIC90). Particulars: duplicate; for MIC90 (concentration at which 90% of the fungi were inhibited compared to the negative control): RPMI 1640, growth read after 24 hours; for MIC90: ATCC32033, RPMI 1640, growth read after 24 hours, read-out: MIC90 (concentration at which 90% of the fungi were inhibited compared to the negative control). Type of assay: cell-based. As for the experimental part: as §1, §2

Assay [6] concerns Candida glabrata ATCC 34138. Description: In vitro assay for antifungal activity (MIC90). In kind it is cell-based. As to conditions: duplicate; for MIC90 (concentration at which 90% of the fungi were inhibited compared to the negative control): RPMI 1640, growth read after 24 hours; for MIC90: Nakaseomyces glabratus, ATCC34138, RPMI 1640, growth read after 24 hours, read-out: MIC90 (concentration at which 90% of the fungi were inhibited compared to the negative control). On the procedure: as §1, §2

The next assay deals with Candida krusei ATCC 6258. The assay can be described thus: In vitro assay for antifungal activity (MIC90). In kind it is cell-based. Particulars: duplicate; for MIC90 (concentration at which 90% of the fungi were inhibited compared to the negative control): RPMI 1640, growth read after 24 hours; for MIC90: Pichia kudriavzevii, ATCC6258, RPMI 1640, growth read after 24 hours, read-out: MIC90 (concentration at which 90% of the fungi were inhibited compared to the negative control). As for the experimental part:
as §1, §2

Assay [7] concerns Cryptococcus neoformans ATCC 4065. Description: In vitro assay for antifungal activity (MIC90). Type of assay: cell-based. Particulars: for MIC90 (concentration at which 90% of the fungi were inhibited compared to the negative control): RPMI 1640, duplicate; for MIC90: ATCC4065, RPMI 1640, duplicate, read-out: MIC90 (concentration at which 90% of the fungi were inhibited compared to the negative control). On the procedure:
as §1, §2

The subject of assay [8] is Candida albicans (ATCC 36082). Description: In vivo assay for antifungal activity (survival of infected mice). Particulars: ICR mice infected i.v. with Candida albicans ATCC 36082; 20 mg/kg orally once a day for seven days (day 0 to day 6); groups of 10. On the procedure: Candida albicans (ATCC 36082) was grown in YM broth on a rotary shaker (200 rpm, 26° C.) for about 12 hours to a concentration of 2.5×10^7 CFU/ml and used to infect ICR mice at a dose of 0.2 ml/head via caudal veins. Suspensions or solutions of the azole compounds in a 25% beta-hydroxypropyl methylcellulose base were orally administered at a dose of 20 mg/kg to respective infected ICR mice in groups of 10, the condition and body weights of the mice were monitored, and autopsies were finally conducted. For a negative control, the vehicle alone was used while fluconazole was administered to a positive control. The mice were inoculated once with the fungal preparation on the day of commencement of the administration. The test materials of interest and the positive control material were orally administered to the inoculated mice once a day for seven days from day 0 to day 6, with the first oral administration made five hours after the fungal inoculation (day 0). The periods of time for which the infected mice lived were counted.
The number of mice which survived the fungal infection for 21 days following the inoculation was represented as % survival for each test group, and the results are given in Table 11, below. All members of the negative control were dead 8 days after the fungal infection, while all of the groups administered with Compound 50 were dead 18 days after the fungal infection.

Turning to `C[C@@H](n1cc2cc(F)ccc2n1)[C@](O)(Cn1cncn1)c1ccc(F)cc1F` [Example 56], the “MIC90 (concentration at which 90% of the fungi were inhibited compared to the negative control)” value in assay [1] is 2 µg/mL; in [2], 0.5 µg/mL; in assay [3], 2 µg/mL; in assay [4], 2 µg/mL; in assay [5] it was “≦0.015 μg/ml”; in [6] it was 2 µg/mL. In addition, the “MIC90 (concentration at which 90% of the fungi were inhibited compared to the negative control)” value against Candida krusei ATCC 6258 is 1 µg/mL; in assay [7] it was 0.125 µg/mL.
With `Cc1c2cc(F)ccc2nn1[C@H](C)[C@](O)(Cn1cncn1)c1ccc(F)cc1F` [Example 72], the “MIC90 (concentration at which 90% of the fungi were inhibited compared to the negative control)” value in assay [1] stood at 8 µg/mL; in assay [2], 4 µg/mL; in [3], 8 µg/mL; in [4] it was 4 µg/mL; in assay [5], 0.031 µg/mL; in assay [6] it was 8 µg/mL. The “MIC90 (concentration at which 90% of the fungi were inhibited compared to the negative control)” value against Candida krusei ATCC 6258 amounted to 8 µg/mL; in assay [7] it was 1 µg/mL.
`CCc1c2cc(F)ccc2nn1[C@H](C)[C@](O)(Cn1cncn1)c1ccc(F)cc1F` [Example 100]: the “MIC90 (concentration at which 90% of the fungi were inhibited compared to the negative control)” value is 16 µg/mL in [1]; 16 µg/mL in assay [2]; over 16 µg/mL in assay [3]; 16 µg/mL in assay [4]; “≦0.015 μg/ml” in assay [5]; 8 µg/mL in [6]. In addition, the “MIC90 (concentration at which 90% of the fungi were inhibited compared to the negative control)” value against Candida krusei ATCC 6258 was determined as 4 µg/mL; in [7], 0.25 µg/mL.
For the molecule `Cc1nn([C@H](C)[C@](O)(Cn2cncn2)c2ccc(F)cc2F)c2ccc([N+](=O)[O-])cc12` [Example 106, (2R,3R)-2-(2,4-Difluorophenyl)-3-(3-methyl-5-nitro-1H-indazol-1-yl)-1-(1H-1,2,4-triazol-1-yl)butan-2-ol], the MIC90 in assay [1] was found to be 8 µg/mL (≈ 18.7 µM); in assay [2] it was 8 µg/mL (≈ 18.7 µM); in [3], 16 µg/mL (≈ 37.3 µM); in assay [4] it was 4 µg/mL (≈ 9.34 µM); in assay [5], 0.031 µg/mL (≈ 0.0724 µM); in assay [6], 8 µg/mL (≈ 18.7 µM). The values for the MIC90 (in the assay with Candida krusei ATCC 6258; in assay [7]) were 4 µg/mL (≈ 9.34 µM) and 0.5 µg/mL (≈ 1.17 µM), respectively.
With `C[C@@H](n1ncc2cc(NCc3ccc(F)cc3)ccc21)[C@](O)(Cn1cncn1)c1ccc(F)cc1F` [Example 244], the “MIC90 (concentration at which 90% of the fungi were inhibited compared to the negative control)” value was 0.5 µg/mL in [1]; 0.5 µg/mL in assay [2]; 2 µg/mL in assay [3]; 1 µg/mL in [4]; “≦0.015 μg/ml” in [5]; 8 µg/mL in assay [6]. Further, the “MIC90 (concentration at which 90% of the fungi were inhibited compared to the negative control)” value was 0.5 µg/mL in the assay on Candida krusei ATCC 6258 and 0.25 µg/mL in [7].
Regarding `C[C@@H](n1ncc2cc(NCc3ccc(OC(F)(F)F)cc3)ccc21)[C@](O)(Cn1cncn1)c1ccc(F)cc1F` [Example 247], the “MIC90 (concentration at which 90% of the fungi were inhibited compared to the negative control)” value in assay [1] is 1 µg/mL; in [2], 1 µg/mL; in [3] it was 4 µg/mL; in [4], 2 µg/mL; in assay [5], “≦0.015 μg/ml”; in assay [6] it was 8 µg/mL. Also, the figures for the “MIC90 (concentration at which 90% of the fungi were inhibited compared to the negative control)” value (in the assay on Candida krusei ATCC 6258; in [7]) were 0.5 µg/mL and 0.25 µg/mL, respectively.
On to `C[C@@H](n1ncc2cc(NCc3ccc(F)cc3F)ccc21)[C@](O)(Cn1cncn1)c1ccc(F)cc1F` [Example 250], for which the “MIC90 (concentration at which 90% of the fungi were inhibited compared to the negative control)” value was 0.5 µg/mL in assay [1]; 1 µg/mL in assay [2]; 4 µg/mL in assay [3]; 2 µg/mL in assay [4]; “≦0.015 μg/ml” in assay [5]; 8 µg/mL in [6]. Moreover, the “MIC90 (concentration at which 90% of the fungi were inhibited compared to the negative control)” value is 0.5 µg/mL against Candida krusei ATCC 6258 and 0.25 µg/mL in assay [7].
With `C[C@@H](n1ncc2cc(NCC3CCCCC3)ccc21)[C@](O)(Cn1cncn1)c1ccc(F)cc1F` [Example 309], the “MIC90 (concentration at which 90% of the fungi were inhibited compared to the negative control)” value in assay [1] is 2 µg/mL; in [2], 8 µg/mL; in [3], 16 µg/mL; in [4], 4 µg/mL; in [5] it was “≦0.015 μg/ml”; in assay [6] it was 8 µg/mL. In addition, the “MIC90 (concentration at which 90% of the fungi were inhibited compared to the negative control)” value against Candida krusei ATCC 6258 came to 1 µg/mL; in assay [7] it was 0.5 µg/mL.
With `OC(Cn1cncn1)(Cn1cncn1)c1ccc(F)cc1F` [Fluconazole, fluconazole, reference compound], the MIC90 was over 128 µg/mL in assay [1]; over 128 µg/mL in assay [2]; over 128 µg/mL in assay [3]; over 128 µg/mL in assay [4]; 1 µg/mL (≈ 3.27 µM) in [5]; over 32 µg/mL in assay [6]. The MIC90 with Candida krusei ATCC 6258 is over 8 µg/mL; in assay [7], 8 µg/mL (≈ 26.1 µM). The “% Survival on Day 21” value in [8] was 20%.
